According to ChEMBL document CHEMBL5143717 (J Med Chem, 2022):

Columns and labels:
[1] = Drug concentration in rat at 2 mg/kg, po measured after 24 hrs; format: ADME, organism-based; conditions: in vivo; for concentration at 24 h: read-out: Drug uptake; for Drug uptake: po, 2 mg/kg, 24 h, BLD = below limit of detection
[2] = AUClast in rat at 2 mg/kg, po; format: ADME, organism-based; design: time 0 - last, dose 2 mg/kg, route po; conditions: in vivo
[3] = Oral bioavailability in dog at 1 mg/kg; format: ADME, organism-based, Canis lupus familiaris; conditions: in vivo
[4] = Volume of distribution at steady state in cynomolgus monkey at 1 mg/kg, po or 0.5 mg/kg, iv; format: ADME, organism-based, Macaca fascicularis; conditions: in vivo
[5] = Oral bioavailability in rat at 2 mg/kg; format: ADME, organism-based; conditions: in vivo
[6] = Volume of distribution at steady state in rat at 2 mg/kg, po or 0.5 mg/kg, iv; format: ADME, organism-based; conditions: in vivo
[7] = Oral bioavailability in cynomolgus monkey at 1 mg/kg; format: ADME, organism-based, Macaca fascicularis; conditions: in vivo
[8] = Volume of distribution at steady state in dog at 1 mg/kg, po or 0.5 mg/kg, iv; format: ADME, organism-based, Canis lupus familiaris; conditions: in vivo

Row | Structure (SMILES) | concentration at 24 h [1] | AUC(0-t) [2] | further results
1 | COc1cc(OCc2cccc(-c3ccc(C#N)cn3)c2)c2cc(-c3cn4nc(OC)sc4n3)oc2c1 | 13 nM | 0.91 µM·h | 
2 | CNC(=O)c1ccc(-c2nc(COc3cc(OC)cc4oc(-c5cn6nc(OC)sc6n5)cc34)cs2)cc1 |  | 0.04 µM·h | Drug uptake [1]: Bld
3 | COc1cc(OCc2csc(-c3ccc(C(=O)N4CCC(F)(F)C4)cc3)n2)c2cc(-c3cn4nc(OC)sc4n3)oc2c1 | 1.8 nM | 0.58 µM·h | 
4 | COc1cc(OCc2cccc(-c3ccc(C(F)(F)F)cn3)c2)c2cc(-c3cn4nc(OC)sc4n3)oc2c1 |  | 0.83 µM·h | Drug uptake [1]: Bld
5 | COc1cc(OCc2cccc(-c3ccc(C#N)cc3)c2)c2cc(-c3cn4nc(OC)sc4n3)oc2c1 | 13 nM | 1.2 µM·h | 
6 | COc1cc(OCc2cccc(-c3ccoc3)c2)c2cc(-c3cn4nc(OC)sc4n3)oc2c1 | 140 nM | 10.9 µM·h | 
7 | COc1cc(OCc2csc(-c3ccc(C(N)=O)cc3)n2)c2cc(-c3cn4nc(OC)sc4n3)oc2c1 |  |  | Drug uptake [1]: Bld
8 | COc1cc(OCc2cccc(-c3cnc(OC)cn3)c2)c2cc(-c3cn4nc(OC)sc4n3)oc2c1 | 7.7 nM | 1.4 µM·h | 
9 | COc1cc(OCc2cccc(-c3cnc(OC)nc3)c2)c2cc(-c3cn4nc(OC)sc4n3)oc2c1 | 29 nM | 2 µM·h | 
10 | COc1cc(OCc2csc(-c3ccc(C(F)(F)F)cc3)n2)c2cc(-c3cn4nc(OC)sc4n3)oc2c1 | 9 nM | 1.3 µM·h | 
11 | COc1ccc(-c2cccc(COc3cc(OC)cc4oc(-c5cn6nc(OC)sc6n5)cc34)c2)nc1 | 22 nM | 3.3 µM·h | 
12 | COc1cc(OCc2cccc(-c3ccc(OC)nc3)c2)c2cc(-c3cn4nc(OC)sc4n3)oc2c1 | 19 nM | 3.5 µM·h | 
13 | COc1cc(OCc2ccnc(-c3ccccc3)n2)c2cc(-c3cn4nc(OC)sc4n3)oc2c1 | 94 nM | 7.4 µM·h | 
14 | COc1cc(OCc2cccc(OCc3ccccc3)c2)c2cc(-c3cn4nc(OC)sc4n3)oc2c1 | 3 nM | 0.66 µM·h | 
15 | COc1cc(OCc2ccccc2)c2cc(-c3cn4nc(OC)sc4n3)oc2c1 | 46 nM | 5.5 µM·h | 
16 | COc1cc(OCc2cc(C(F)(F)F)ccc2C)c2cc(-c3cn4nc(OC)sc4n3)oc2c1 | 12 nM | 1.9 µM·h | 
17 | COc1cc(OCc2csc(-c3ccc(C(=O)N(C)C)cc3)n2)c2cc(-c3cn4nc(OC)sc4n3)oc2c1 [BMS-986141] | 4.7 nM |  | bioavailability [3]: 25%; Vdss [4]: 14 L/kg; F [5]: 31%; Vdss [6]: 2.7 L/kg; bioavailability [7]: 36%; AUClast [2]: 3.1 µM·h; Vdss [8]: 2.7 L/kg

The next lines start with results.

Row | concentration at 24 h [1] | AUC(0-t) [2] | Structure (SMILES) | further results
18 | 69 nM | 13.1 µM·h | COc1cc(OCc2coc(N3CCOCC3)n2)c2cc(-c3cn4nc(OC)sc4n3)oc2c1 | 
19 | 2 nM | 0.26 µM·h | COc1cc(OCc2csc(-c3ccc(S(C)(=O)=O)cc3)n2)c2cc(-c3cn4nc(OC)sc4n3)oc2c1 | 
20 | 12 nM | 1.9 µM·h | COc1cc(OCc2csc(N3CC4CCC(C3)O4)n2)c2cc(-c3cn4nc(OC)sc4n3)oc2c1 | 
21 | 89 nM | 8 µM·h | COc1cc(OCc2csc(-c3ccccc3)n2)c2cc(-c3cn4nc(OC)sc4n3)oc2c1 | 
22 | 49 nM | 5 µM·h | COc1cc(OCc2csc(N3CCCOCC3)n2)c2cc(-c3cn4nc(OC)sc4n3)oc2c1 | 
23 | 230 nM |  | COc1cc(OCc2nc(N3CCOCC3)sc2C)c2cc(-c3cn4nc(OC)sc4n3)oc2c1 | bioavailability [3]: 19%; Vdss [4]: 11 L/kg; F [5]: 21%; Vdss [6]: 1.4 L/kg; bioavailability [7]: 26%; AUClast [2]: 23.7 µM·h; Vdss [8]: 5.9 L/kg
24 | 6.7 nM | 0.92 µM·h | COc1cc(OCc2csc(-c3ccc(C(C)(C)O)cc3)n2)c2cc(-c3cn4nc(OC)sc4n3)oc2c1 | 
25 | 5 nM | 1.8 µM·h | COc1cc(OCc2csc(N3CCN(C)CC3)n2)c2cc(-c3cn4nc(OC)sc4n3)oc2c1 | 
26 | 14 nM | 2.4 µM·h | COc1cc(OCc2nc(N3CCOCC3)sc2C(F)(F)F)c2cc(-c3cn4nc(OC)sc4n3)oc2c1 | 
27 | 340 nM | 21.6 µM·h | COc1cc(OCc2csc(N3CCCCC3)n2)c2cc(-c3cn4nc(OC)sc4n3)oc2c1 | 
28 | 4.7 nM | 3 µM·h | COc1cc(OCc2csc(-c3ccc(C(=O)N4CCCC4)cc3)n2)c2cc(-c3cn4nc(OC)sc4n3)oc2c1 | 
29 | 21 nM | 0.8 µM·h | COc1cc(OCc2csc(C3CCC(F)(F)CC3)n2)c2cc(-c3cn4nc(OC)sc4n3)oc2c1 | 
30 | 28 nM | 3.7 µM·h | COc1cc(OCc2csc(C3CCOCC3)n2)c2cc(-c3cn4nc(OC)sc4n3)oc2c1 | 
31 | 240 nM | 16.2 µM·h | COc1cc(OCc2csc(N3CCOCC3)n2)c2cc(-c3cn4nc(OC)sc4n3)oc2c1 | 
32 | 93 nM | 7.3 µM·h | COc1cc(OCc2cccc(N3CCOCC3)n2)c2cc(-c3cn4nc(OC)sc4n3)oc2c1 | 
33 | 86 nM | 7.5 µM·h | COc1cc(OCc2ccnc(N3CCOCC3)n2)c2cc(-c3cn4nc(OC)sc4n3)oc2c1 | 
